Experimental data reported in patent US20140081017A1, “Histone Deacetylase Inhibitors for Enhancing Activity of Antifungal Agents” (METHYLGENE INC., priority 2012, published 2014).
≈ marks a conversion by molar mass, not a printed value. Where two headings read alike, the source gives them in different places.

Key:
Candida parapsilosis = experiment: Minimal Inhibitory Concentration (MIC) assay, broth microdilution per CLSI; type: cell-based; details: Lodderomyces parapsilosis, read-out: Minimum Inhibitory Concentrations against Yeast Isolates, Candida parapsilosis;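 further: two read times 24 hr and 48 hr of incubation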
Outline: (§1)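 Steps: overnight yeast growth on Sabouraud dextrose agar at 35° C; 0.5 McFarland saline suspension diluted 1:100 in RPMI (0.165 M MOPS, pH 7.0); inoculation into twofold compound dilutions; incubation 24-48 hr at 35° C; MIC scored as lowest concentration without visible growth.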

Candida albicans = experiment: as above; type: cell-based; details: Candida albicans, read-out: Minimum Inhibitory Concentrations against Yeast Isolates, Candida albicans;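 further: two read times 24 hr and 48 hr of incubation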
Outline: as §1

Candida glabrata = experiment: as above; type: cell-based; details: Nakaseomyces glabratus, read-out: Minimum Inhibitory Concentrations against Yeast Isolates, Candida glabrata;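 further: two read times 24 hr and 48 hr of incubation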
Outline: as §1

C. glabrata = experiment: Checkerboard FIC assay in combination with fluconazole (MIC alone and in combination, FICI); type: cell-based, Candida glabrata; details: for FICI of combination resulting in fluconazole MIC of: 2 ug/mL / FICI of combination resulting in fluconazole MIC of: 4 ug/mL / FICI of combination resulting in fluconazole MIC of: 8 ug/mL: FICI calculated using a fluconazole MIC of 16 μg/mL; for FICI of combination resulting in fluconazole MIC of: 2 ug/mL (value in parenthesis) / FICI of combination resulting in fluconazole MIC of: 4 ug/mL (value in parenthesis) / FICI of combination resulting in fluconazole MIC of: 8 ug/mL (value in parenthesis): FICI using a fluconazole MIC of 128 μg/mL; for MIC: Nakaseomyces glabratus; for Multiple of compound MIC to synergize fluconazole MIC to 2 ug/mL / Multiple of compound MIC to synergize fluconazole MIC to 4 ug/mL / Multiple of compound MIC to synergize fluconazole MIC to 8 ug/mL: concentration in combination as multiple of the compound's MIC alone; for Multiple of compound MIC to synergize fluconazole MIC to 2 ug/mL: fluconazole MIC 2 ug/mL; for Multiple of compound MIC to synergize fluconazole MIC to 4 ug/mL: fluconazole MIC 4 ug/mL; for Multiple of compound MIC to synergize fluconazole MIC to 8 ug/mL: fluconazole MIC 8 ug/mL; for Concentration of Methylgene compound to synergize fluconazole MIC to 2 ug/mL / Concentration of Methylgene compound to synergize fluconazole MIC to 4 ug/mL / Concentration of Methylgene compound to synergize fluconazole MIC to 8 ug/mL: in combination with fluconazole; for Concentration of Methylgene compound to synergize fluconazole MIC to 2 ug/mL: fluconazole MIC lowered to 2 ug/mL; for Concentration of Methylgene compound to synergize fluconazole MIC to 4 ug/mL: fluconazole MIC lowered to 4 ug/mL; for Concentration of Methylgene compound to synergize fluconazole MIC to 8 ug/mL: fluconazole MIC lowered to 8 ug/mL
Outline: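 A fluconazole synergy checkerboard was run against C. glabrata in MOPS-buffered RPMI (pH 7.0) for about 48 h at 35 °C. Each agent was diluted 2-fold, with one row and one column holding each agent alone for MIC determination. FICI was calculated from these MICs, using a 0.5 McFarland inoculum diluted 1:100 per CLSI.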

[1] = 24 hr reading (first value of cell 24 hr/48 hr)
[2] = 48 hr reading (second value of cell 24 hr/48 hr)
[3] = MIC of the example compound alone against C. glabrata in the checkerboard assay, approximately 48 hr, read-out: Methylgene MIC
[4] = test compound alone, C. glabrata, approx. 48 hr at 35° C., read-out: Compound MIC

Structure (SMILES) | MIC (Candida parapsilosis; [1]) [µg/mL] | MIC (Candida parapsilosis; [2]) [µg/mL] | MIC (Candida albicans; [1]) [µg/mL] | MIC (Candida albicans; [2]) [µg/mL] | MIC (Candida glabrata; [1]) [µg/mL] | MIC (Candida glabrata; [2]) [µg/mL] | FICI of combination resulting in fluconazole MIC of: 2 ug/mL (C. glabrata; C. glabrata) | FICI of combination resulting in fluconazole MIC of: 4 ug/mL (C. glabrata; C. glabrata) | FICI of combination resulting in fluconazole MIC of: 8 ug/mL (C. glabrata; C. glabrata) | FICI of combination resulting in fluconazole MIC of: 2 ug/mL (value in parenthesis) (C. glabrata; C. glabrata) | FICI of combination resulting in fluconazole MIC of: 4 ug/mL (value in parenthesis) (C. glabrata; C. glabrata) | FICI of combination resulting in fluconazole MIC of: 8 ug/mL (value in parenthesis) (C. glabrata; C. glabrata) | MIC (C. glabrata; [3]) [µg/mL] | MIC (C. glabrata; [4]) [µg/mL] | Multiple of compound MIC to synergize fluconazole MIC to 2 ug/mL (C. glabrata) | Multiple of compound MIC to synergize fluconazole MIC to 4 ug/mL (C. glabrata) | Multiple of compound MIC to synergize fluconazole MIC to 8 ug/mL (C. glabrata) | Concentration of Methylgene compound to synergize fluconazole MIC to 2 ug/mL (C. glabrata; C. glabrata) [µg/mL] | Concentration of Methylgene compound to synergize fluconazole MIC to 4 ug/mL (C. glabrata; C. glabrata) [µg/mL] | Concentration of Methylgene compound to synergize fluconazole MIC to 8 ug/mL (C. glabrata; C. glabrata) [µg/mL]
CC(=O)Nc1ccc(CCCCc2ccc(CC(=O)NO)cc2)cc1 [Example 39, 2-(4-(4-(4-acetamidophenyl)butyl)phenyl)-N-hydroxyacetamide] | > 8 | > 8 | > 8 | > 8 | > 8 | > 8 | 0.375 | 0.375 | 0.563 | 0.266 | 0.156 | 0.125 | 16 | 16 | (¼x) | (⅛x) | ( 1/16x) | 4 | 2 | 1
O=C(Cc1ccc(CCCCc2ccc(C(=O)N3CCN(CCn4ccnc4)CC3)cc2)cc1)NO [Example 21, 2-(4-(4-(4-(4-(2-(1H-imidazol-1-yl)ethyl)piperazine-1-carbonyl)phenyl)butyl)phenyl)-N-hydroxyacetamide] | > 64 | > 64 | > 64 | > 64 | 16 (≈ 32.7 µM) | 32 (≈ 65.4 µM) | 0.313 | 0.250 | 0.375 | 0.266 | 0.156 | 0.188 | 16 | 16 | (¼x) | (⅛X) | (⅛X) | 4 | 2 | 2
CN1CCN(CCS(=O)(=O)Nc2ccc(CCCCc3ccc(CC(=O)NO)cc3)cc2)CC1 [Example 52, N-hydroxy-2-(4-(4-(4-(2-(4-methylpiperazin-1-yl)ethylsulfonamido)phenyl)butyl)phenyl)acetamide] | > 64 | > 64 | > 64 | > 64 | 8 (≈ 16.4 µM) | > 64 | > 0.563 | > 0.625 | > 0.500 | > 0.516 | > 0.531 | > 0.313 | > 16 | > 16 | – | – | – | 16 | 16 | 8
CN1CCN(CCS(=O)(=O)Nc2cccc(CCCCc3ccc(CC(=O)NO)cc3)c2)CC1 [Example 54, N-hydroxy-2-(4-(4-(3-(2-(4-methylpiperazin-1-yl)ethylsulfonamido)phenyl)butyl)phenyl)acetamide] | > 64 | > 64 | > 64 | > 64 | 16 (≈ 32.7 µM) | > 64 | 0.313 | 0.250 | 0.313 | 0.266 | 0.156 | 0.125 | > 16 | > 16 | – | – | – | 8 | 4 | 2
O=C(Cc1ccc(CCCCc2ccc(NC(=O)CO)cc2)cc1)NO [Example 36, N-hydroxy-2-(4-(4-(4-(2-hydroxyacetamido)phenyl)butyl)phenyl)acetamide] | > 8 | > 8 | > 8 | > 8 | > 8 | > 8 | 0.375 | 0.500 | 0.625 | 0.266 | 0.281 | 0.188 | 16 | 16 | (¼x) | (¼x) | (⅛x) | 4 | 4 | 2
O=C(Cc1ccc(C(F)CCCc2ccccc2)cc1)NO (stereo not drawn) [Example 61, 2-(4-(1-fluoro-4-phenylbutyl)phenyl)-N-hydroxyacetamide] | 8 (≈ 26.5 µM) | 16 (≈ 53.1 µM) | 4 (≈ 13.3 µM) | 8 (≈ 26.5 µM) | 2 (≈ 6.64 µM) | 4 (≈ 13.3 µM) | 0.313 | 0.375 | 0.375 | 0.266 | 0.281 | 0.188 | 4 | 4 | (¼x) | (¼x) | (⅛x) | 1 | 1 | 0.5
